Bounds are passed on as bounds.

The target in this test is redox function of APE1 (Homo sapiens, UniProt P27695). Nature of the test: Redox EMSA Assay. It is filed as biochemical. Conditions: 0.02 mM DTT. Here is the method: EXAMPLE. Redox EMSA Assay. Conventional electrophoresis measuring Ape1 […] with 0.02 mM DTT is used to evaluate test compounds. Additional details are described in Fishel et al. Mol Cancer Ther. 2011 September; 10(9):1698-708 & Luo et al., Antioxid Redox Signal. 2008 November; 10(11):1853-67. […]
redox function of APE1, sequence (P27695 whole entry): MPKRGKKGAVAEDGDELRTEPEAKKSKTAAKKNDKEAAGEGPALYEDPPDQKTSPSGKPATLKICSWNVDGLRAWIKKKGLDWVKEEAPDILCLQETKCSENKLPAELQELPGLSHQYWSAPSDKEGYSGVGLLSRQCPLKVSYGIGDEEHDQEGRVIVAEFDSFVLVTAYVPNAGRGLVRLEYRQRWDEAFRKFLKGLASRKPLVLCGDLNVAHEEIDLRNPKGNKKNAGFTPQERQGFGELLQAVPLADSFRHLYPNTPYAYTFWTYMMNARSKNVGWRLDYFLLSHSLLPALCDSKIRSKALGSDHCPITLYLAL
With `CCC/C(=C\C1=C(OC)C(=O)c2ccccc2C1=O)C(=O)NC` [Example 1], the 50% inhibitory concentration (IC50) is 6.2 µM. For `CCC/C(=C\C1=C(OC)C(=O)c2ccccc2C1=O)C(=O)N(C)C` [Example 2] the value was 2.3 µM. In turn, `CCC/C(=C\C1=C(OC)C(=O)c2ccccc2C1=O)C(=O)NCC` [Example 3] yielded an IC50 of 3.3 µM. Turning to `CCC/C(=C\C1=C(OC)C(=O)c2ccccc2C1=O)C(=O)N(CC)CC` [Example 5], the IC50 was < 1 µM.

`CCCC/C(=C\C1=C(C)C(=O)c2ccccc2C1=O)C(=O)NC` [Example 6] had an IC50 of 17 µM.

Turning to `CCCC/C(=C\C1=C(C)C(=O)c2ccccc2C1=O)C(=O)N(C)C` [Example 7], the 50% inhibitory concentration (IC50) was 23 µM. Turning to `CCCC/C(=C\C1=C(C)C(=O)c2ccccc2C1=O)C(=O)NCC` [Example 8], inhibition was half-maximal at 20 µM (IC50).

The compound `CCCC/C(=C\C1=C(C)C(=O)c2ccccc2C1=O)C(=O)N(CC)CC` [Example 9] yielded a half-inhibitory concentration (IC50) of 120 µM. For `CCCC/C(=C\C1=C(OC)C(=O)c2ccccc2C1=O)C(=O)NOC` [Example 10] the value was < 1 µM; for `CCCC/C(=C\C1=C(C)C(=O)c2ccccc2C1=O)C(=O)NC1CC1` [Example 11], 14 µM.

For the compound `CCCC/C(=C\C1=C(C)C(=O)c2ccccc2C1=O)C(=O)NC1CCCCC1` [Example 14], the IC50 was 98 µM. For `CCCC/C(=C\C1=C(C)C(=O)c2ccccc2C1=O)C(=O)N1CCNC(=O)C1` [Example 15], 23 µM corresponded to half-maximal inhibition (IC50). Compound `CCCC/C(=C\C1=C(C)C(=O)c2ccccc2C1=O)C(=O)N(C)OC` [Example 16] returned an IC50 of 26 µM. For the compound `CCCC/C(=C/C1=C(C)C(=O)c2ccccc2C1=O)C(=O)N1CCOCC1` [Example 17], the IC50 was 25 µM. Take `CCCC/C(=C\C1=C(C)C(=O)c2ccccc2C1=O)C(=O)N1CCOCC1` [Example 18]: 34 µM corresponded to half-maximal inhibition (IC50). For `CCCC/C(=C\C1=C(C)C(=O)c2ccccc2C1=O)C(=O)NCCOC` [Example 20] the value was 94 µM. In turn, `CCCC/C(=C/C1=C(C)C(=O)c2ccccc2C1=O)C(=O)NCCOC` [Example 21] displayed a concentration for half-maximal inhibition (IC50) of 40 µM. With `CCC/C(=C\C1=C(Cl)C(=O)c2ccccc2C1=O)C(=O)NOC` [Example 22], the IC50 is < 2.5 µM. In the case of `CCC/C(=C\C1=C(Cl)C(=O)c2ccccc2C1=O)C(=O)N(CC)CC` [Example 23], the IC50 stood at 2.5 µM.

`CCC/C(=C\C1=C(O)C(=O)c2ccccc2C1=O)C(=O)O` [Example 24]: the IC50 is > 10 µM. In turn, `CCCC(=CC1=C(OC)C(=O)c2ccccc2C1=O)C(=O)N(CC)CC` [Example 25] gave a 50% inhibitory concentration (IC50) of 13 µM. To `CCCC(=CC1=C(OC)C(=O)c2ccccc2C1=O)C(=O)N(C)C` [Example 26] belongs 2.6 µM; to `CCCCCCCCC/C(=C\C1=C(C)C(=O)C(OC)=C(OC)C1=O)C(=O)NOC` [Example 29], 17 µM; to `CCCCCCCCC/C(=C\C1=C(C)C(=O)C(OC)=C(OC)C1=O)C(=O)N(C)CC(O)C(O)C(O)C(O)CO` (stereo not drawn) [Example 30], 15 µM. For `CCCC/C(=C\C1=C(C)C(=O)C(OC)=C(OC)C1=O)C(=O)N(C)OC` [Example 31] the value was 24 µM. `CCCC/C(=C\C1=C(C)C(=O)c2ccccc2C1=O)C(=O)O` [Example 32] gave a half-inhibitory concentration (IC50) of 47 to 52 µM. To `CCCC/C(=C\C1=C(OC)C(=O)c2ccccc2C1=O)C(=O)O` [Example 33] belongs 0.5 µM.

The values above are taken from US11160770B2, “Compounds, compositions and methods for treating oxidative DNA damage disorders” (Indiana University Research and Technology Corporation, priority 2011, dated 2021).
